# Where two headings read alike, the source gives them in different places.
# Assays:
# P. aeruginosa ATCC 27853 = test: Inhibition zone, paper disk/agar diffusion; assay type: cell-based; conditions: P. aeruginosa; Na = no activity
# Text: (§1) The antimicrobial activity performed at the bacteriology laboratory, Botany and Microbiology Department, Faculty of Science, Al-Azhar University, Cairo, Egypt. The inhibition zone (IZ) of the tested derivatives expressed as the diameter (mm) according to the agar plate diffusion method.
# E. faecalis ATCC 29212 = test: Inhibition zone, paper disk/agar diffusion; also: test concentration or dose not given here; assay type: cell-based; conditions: E. faecalis; Na = no activity
# Text: as §1
# B. subtilis ATCC 6633 = test: Inhibition zone, paper disk/agar diffusion; also: test concentration or dose not given here; assay type: cell-based; conditions: B. subtilis; Na = no activity
# Text: as §1
# C. albicans (ATCC 10231) [1] = test: Inhibition zone, paper disk/agar diffusion; assay type: cell-based; conditions: Na = no activity
# Text: as §1
# [2] = system: F. oxysporum (RCMB 008002); test: Inhibition zone, paper disk/agar diffusion; assay type: cell-based; conditions: Na = no activity; also: test concentration or dose not given here
# Text: as §1
# E. coli ATCC 25922 = test: Inhibition zone, paper disk/agar diffusion; assay type: cell-based; conditions: E. coli; Na = no activity
# Text: as §1
# S. typhi ATCC 6539 = test: Inhibition zone, paper disk/agar diffusion; assay type: cell-based; conditions: S. typhi; Na = no activity
# Text: as §1
# S. aureus ATCC 29213 = test: Inhibition zone, paper disk/agar diffusion; also: test concentration or dose not given here; assay type: cell-based; conditions: S. aureus; Na = no activity
# Text: as §1
# [3] = system: F. oxysporum (RCMB 008002); test: MIC and MFC determination; assay type: cell-based
# C. albicans (ATCC 10231) [4] = test: MIC and MFC determination; assay type: cell-based
SMILES,melting point [°C],Mean Diameter of the Inhibition Zone (P. aeruginosa ATCC 27853) [mm],Mean Diameter of the Inhibition Zone (E. faecalis ATCC 29212) [mm],Mean Diameter of the Inhibition Zone (B. subtilis ATCC 6633) [mm],Mean Diameter of the Inhibition Zone (C. albicans (ATCC 10231) [1]) [mm],Mean Diameter of the Inhibition Zone [2],Mean Diameter of the Inhibition Zone (E. coli ATCC 25922) [mm],Mean Diameter of the Inhibition Zone (S. typhi ATCC 6539) [mm],Mean Diameter of the Inhibition Zone (S. aureus ATCC 29213) [mm],"MFC ([3]; Fusarium oxysporum, RCMB008002, read-out: MFC) [µM]","MIC ([3]; Fusarium oxysporum, RCMB008002, read-out: MIC) [µM]",MFC ([3]; listed as Amp. B) [µM],MIC ([3]; listed as Amp. B) [µM],"MFC (C. albicans (ATCC 10231) [4]; Candida albicans, ATCC10231, read-out: MFC) [µM]","MIC (C. albicans (ATCC 10231) [4]; Candida albicans, ATCC10231, read-out: MIC) [µM]",MFC (C. albicans (ATCC 10231) [4]; listed as Amp. B) [µM],MIC (C. albicans (ATCC 10231) [4]; listed as Amp. B) [µM],Mean Diameter of the Inhibition Zone (C. albicans (ATCC 10231) [1]; listed as S2) [mm]
"N#Cc1c(N)cc(N)n(-c2ccc(S(=O)(=O)NC(=N)N)cc2)c1=O [Compound 7, N-Carbamimidoyl-4-(4,6-diamino-3-cyano-2-oxopyridin-1(2H)-yl) benzenesulfonamide]",260,12 ± 0.63,14 ± 0.47,13 ± 0.41,13.0 ± 0.20,no activity,,,,,,,,,,,,
"N#Cc1c(N)n(-c2ccc(S(=O)(=O)NC(=N)N)cc2)c(=O)c2c(=N)oc3ccccc3c12 [Compound 12, 4-(2-Amino-1-cyano-5-imino-4-oxo-4H-chromeno[3,4-c]pyridin-3(5H)-yl)-N-cabamimidoylbenzenesulfonamide]",266 to 268,,12 ± 0.74,15 ± 0.45,12 ± 0.50,no activity,14 ± 0.21,,,,,,,,,,,
"N#Cc1c(-c2ccc(O)cc2)c(C#N)c(=O)n(-c2ccc(S(=O)(=O)NC(=N)N)cc2)c1N [Compound 3c, 4-(6-Amino-3,5-dicyano-4-(4-hydroxyphenyl)-2-oxopyridin-1(2H)-yl)-N-carbamimidoylbenzenesulfonamide]",265 to 268,17 ± 0.20,19 ± 0.33,,22 ± 0.19,19 ± 0.55 mm,,20 ± 0.33,,,,,,,,,,
"COc1ccc(C=Cc2cc(C)n(-c3ccc(S(=O)(=O)NC(=N)N)cc3)c(=O)c2C#N)cc1 [Compound 9b, N-Carbamimidoyl-4-(3-cyano-4-(4-methoxystyryl)-6-methyl-2-oxopyridin-1(2H)-yl) benzene sulfonamide]",,16 ± 0.20,21 ± 0.55,23 ± 0.50,17 ± 0.56,15 ± 0.15 mm,22 ± 0.81,20 ± 0.16,23 ± 0.12,,,,,,,,,
"COc1ccc(-c2c(C#N)c(N)n(-c3ccc(S(=O)(=O)NC(=N)N)cc3)c(=O)c2C#N)cc1 [Compound 3b, 4-(6-Amino-3,5-dicyano-4-(4-methoxyphenyl)-2-oxopyridin-1(2H)-yl)-N-carbamimidoylbenzenesulfonamide]",256 to 258,,19 ± 0.65,,12 ± 0.36,no activity,21 ± 0.11,14 ± 0.16,,,,,,,,,,
"COc1ccc(-c2c(C(=O)Nc3ccc(S(=O)(=O)NC(=N)N)cc3)c(N)[nH]c(=O)c2C#N)cc1 [Compound 6, 2-Amino-N-(4-(carbamimidoylsulfamoyl)phenyl)-5-cyano-4-(4-methoxyphenyl)-6-oxo-1,6-dihydropyridine-3-carboxamide]",265 to 268,,,18 ± 0.12,18 ± 0.20,14 ± 0.38 mm,,12 ± 0.61,16 ± 0.54,,,,,,,,,
"C[C@@H]1[C@H](O)[C@@H](C)/C=C/C=C/C=C/C=C/C=C/C=C/C=C/[C@H](O[C@@H]2O[C@H](C)[C@@H](O)[C@H](N)[C@@H]2O)C[C@@H]2O[C@](O)(C[C@@H](O)C[C@@H](O)[C@H](O)CC[C@@H](O)C[C@@H](O)CC(=O)O[C@H]1C)C[C@H](O)[C@H]2C(=O)O [Amphotericin B, amphotericin B, reference compound]",,,,,22 ± 0.2,18 ± 0.32 mm,,,,70.6,33.6,70.62 ± 0.76,33.63 ± 0.98,37.3,16.8,37.26 ± 0.65,16.81 ± 0.29,22 ± 0.20
"Cc1cc(C=Cc2ccc(Cl)cc2)c(C#N)c(=O)n1-c1ccc(S(=O)(=O)NC(=N)N)cc1 [Compound 9a, N-Carbamimidoyl-4-(4-(4-chlorostyryl)-3-cyano-6-methyl-2-oxopyridin-1(2H)-yl) benzene-sulfonamide]",,,25 ± 0.11,22 ± 0.41,19 ± 0.65,no activity,18 ± 0.30,14 ± 0.52,17 ± 0.78,,,,,,,,,
"Cc1cc2csc(N)c2c(=O)n1-c1ccc(S(=O)(=O)NC(=N)N)cc1 [Compound 10, 4-(3-Amino-6-methyl-4-oxothieno[3,4-c]pyridin-5(4H)-yl)-N-carbamimidoylbenzenesulfon-amide]",,21 ± 0.54,19 ± 0.63,14 ± 0.56,14 ± 0.45,16 ± 0.86 mm,20 ± 0.43,12 ± 0.35,17 ± 0.48,,,,,,,,,
"COc1ccc(-c2c(C#N)c(N)n(-c3ccc(S(=O)(=O)NC(=N)N)cc3)c(=O)c2C#N)cc1O [Compound 3d, 4-(6-Amino-3,5-dicyano-4-(3-hydroxy-4-methoxyphenyl)-2-oxopyridin-1(2H)-yl)-N-carbamimidoylbenzenesulfonamide]",250 to 252,,21 ± 0.54,20 ± 0.11,17 ± 0.21,no activity,22 ± 0.43,15 ± 0.36,23 ± 0.29,,,,,,,,,
